# Like-named read-outs stand apart in the source and are kept apart here. * marks the point of attachment. CH2Cl = ClC*
# Tests used:
# [1] = test system: human rhinovirus type 1A; assay type: cell-based
# [2] = test system: human poliomyelitis virus type 2; assay type: cell-based
# [3] = test system: Poliovirus type 2; assay type: cell-based
# [4] = test system: HeLa cells
# [5] = test system: rhinovirus type 1A; assay type: cell-based
# [6] = test system: chymotrypsin; details: inhibitor concentration of 600 ug/rnL; cited from earlier work
# [7] = test system: subtilisin BPN'; details: compared within a series of peptide chloromethyl ketones; cited from earlier work
molecule,measurement,setting,value
"CC(=O)[C@H](CC(C)C)NC(=O)[C@H](C)NC(=O)CNC(=O)[C@H](Cc1ccccc1)NC(=O)OC(C)(C)C [Boc-Phe-Gly-Ala-LeuCH3, reference compound]",activity in the viral cleavage assay,[1],failed to show activity
same,activity in the viral cleavage assay,[2],failed to show activity
COC(=O)CCC(=O)N[C@@H](Cc1ccccc1)C(=O)NCC(=O)N[C@@H](CC(C)C)C(=O)N[C@@H](CC(C)C)C(C)=O [MeOSuc-Phe-Gly-Leu-LeuCH3],activity in the viral cleavage assay,[2]; 50 µg/mL,active
CC(=O)[C@H](CC(C)C)NC(=O)[C@H](C)NC(=O)CNC(=O)[C@H](Cc1ccccc1)NC(=O)OCc1ccccc1 [Z-Phe-Gly-Ala-LeuCH3],activity in the viral cleavage assay,[2]; 50 µg/mL,active
same,plaque reduction,[3],> 90%
same,cytotoxicity,[4],No cytotoxicity was observed
same,plaque reduction,[5],> 90%
Ac-Leu-Leu-PheCH3,inhibition of chymotrypsin,[6],no inhibition was observed
acetyl-L-phenylalanyl-L-glycyl-L-alanyl-L-leucyl chloromethyl ketone (Ac-FGAL-CH2Cl; SMILES CC(=O)N[C@@H](Cc1ccccc1)C(=O)NCC(=O)N[C@@H](C)C(=O)N[C@@H](CC(C)C)C(=O)CCl) [Ac-Phe-Gly-Ala-LeuCH2CI],inhibition of subtilisin BPN',[7],fastest inhibitor
